According to US20200261470A1, “COMBINATION TREATMENT WITH ANTIBODY-DRUG CONJUGATES AND PARP INHIBITORS” (IMMUNOGEN, INC., priority 2016, published 2020):

Legend:
HEL-luc cells = assay: Proliferation measured with WST-8 reagent, HEL-luc cells; type: cell-based, human; settings: for IC50: Homo sapiens, HELluc cell line, single agent, read-out: IC50 values for PARP inhibitors in AML cell lines
Procedure: (§1) Proliferation was measured following incubation with WST-8 reagent. Synergistic/additive effects were calculated using Compusyn software at varying drug concentrations. Flow cytometry for apoptosis, viability, DNA damage/repair, and cell cycle effects following combination versus single drug treatment were also performed.

HL60 cells = assay: Proliferation measured with WST-8 reagent, HL60 cells; type: cell-based; settings: Homo sapiens, HL-60; HL60 cell line, single agent; read-out: IC50 values for PARP inhibitors in AML cell lines
Procedure: as §1

[1] = tested on: Human CD33+ AML cell lines (HEL, MV4-11, and HL60); assay: Proliferation by WST-8 reagent with Compusyn synergy analysis, CD33+ AML cell lines; settings: single agent, all CD33+ human AML cell lines tested
Procedure: Proliferation was measured by WST-8 reagent. Synergistic/additive effects were calculated using Compusyn software. Flow cytometry was performed to assess apoptosis, cell viability, and cell cycle effects.

[2] = tested on: human CD33+ AML (HEL-luciferase) xenografts; type: in vivo; settings: IMGN779 15 mcg/kg, olaparib 100 mg/kg, alone or combined
Procedure: In these experiments, stably transfected luciferase-positive human AML cells (HEL) characterized by high hCD33 expression levels were injected via tail vein into sublethally irradiated 6-8 week old SCID mice. […] In vivo systemic leukemia disease burden was evaluated weekly by small animal bioluminescent imaging. Toxicity was determined by clinical examination and weight measurements throughout the experiment. Overall study endpoints were (a) time to overall morbidity/mortality and/or (b) change in leukemia disease burden as compared with vehicle-treated mice or mice treated with single agent therapy. […] Simple stastical analyses will be performed utilizing the Stat Prism statistical software.

HEL cells = assay: Cell death after DNA-damaging radiation exposure in the presence of olaparib; type: cell-based, human; settings: graded concentrations of olaparib; 0.5 Gy and 0.75 Gy radiation

| SMILES | IC50 (HEL-luc cells) [µM] | IC50 (HL60 cells) [µM] | growth inhibition in vitro [1] | median overall survival from inoculation [2] [days] | cell death after DNA-damaging radiation exposure (HEL cells) | relative potency among PARP inhibitors (HEL-luc cells; HEL-luc and HL60 cell lines) | surviving fraction of cells (HEL-luc cells; PARP inhibitor 0.8 μM, IMGN779 800 pM, compared with olaparib and niraparib) |
| --- | --- | --- | --- | --- | --- | --- | --- |
| NC(=O)c1cccc2cn(-c3ccc([C@@H]4CCCNC4)cc3)nc12 [Niraparib, niraparib] | 7.3 | 2.5 | – | – | – | – | – |
| O=C(c1cc(Cc2n[nH]c(=O)c3ccccc23)ccc1F)N1CCN(C(=O)C2CC2)CC1 [Olaparib, olaparib] | 7.4 | 8.9 | dose-dependent grown inhibition | 33.7 | correlation in increase cell death and apoptosis with the increase in concentration of olaparib | – | – |
| CNCc1ccc(-c2[nH]c3cc(F)cc4c3c2CCNC4=O)cc1 [Rucaparib, rucaparib] | 39 | 75 | – | – | – | – | – |
| Cn1ncnc1[C@H]1c2n[nH]c(=O)c3cc(F)cc(c23)N[C@@H]1c1ccc(F)cc1 [Talazoparib, talazoparib] | 0.4 | 0.2 | – | – | – | most potent PARP inhibitor | greatest decrease in surviving fraction of cells |
| C[C@]1(c2nc3c(C(N)=O)cccc3[nH]2)CCCN1 [Vellparib, veliparib] | > 100 | 88 | – | – | – | – | – |
